Data from patent publication US11779015B2, “Pesticide compositions” (FUNDACIÓ CENTRE DE REGULACIÓ GENÒMICA, priority 2017, dated 2023).
“Also recorded” adds a separate entry of the source.

Experiments:
D. suzukii = assay: Airborne toxicity petri dish assay, adult flies exposed to VOC vapours (FIG. 1A); assay type: in vivo, Drosophila suzukii; conditions: for LD50 (expected concentration at which 50% of the flies die): D. suzukii adults, vapours from solution in paraffin oil, within an hour; for T50 (time at which 50% of the flies were dead) / T50: D. suzukii; for T50: 10% vol; for airborne toxicity/lethality in the initial screen with a high dose (words): VOC at 10 M in paraffin oil, vapour exposure, 1 hour; for specificity of toxicity, D. suzukii versus D. melanogaster: at least at the 3, 5 and 10% vol concentrations
Experimental: A selection of compounds according to the invention were tested for airborne toxicity to D. suzukii by exposing a population of adult D. suzukii flies to the vapours of the compound using an experimental set up as shown on FIG. 1A.
(§1) In particular, adult flies 2 were exposed to compositions 4 comprising one or more of a selection of VOCs according to the invention or a comparative example, in a petri dish 6. The compositions 4 were loaded onto the lid 6a of the petri dish 6 and the flies were placed into the base 6b of the dish, which was then covered by a sheet of plastic mesh netting 8 to avoid direct contact of the flies 2 with the compositions 4, before replacing the lid 6a.
[…] Four drops of 50 microlitres were dispensed into reinforcement rings (not shown) fixed on the inner surface of the petri dish lid 6a.
The experimental set up used was as described in relation to FIG. 1A.
The data is shown as averages±SEM based on 3 to 6 trials for each condition.

[1] = system: honeybees (Apis mellifera); assay: Airborne toxicity on honeybees in the petri dish assay; assay type: in vivo; conditions: adult bees exposed for one hour; for toxicity to honey bees: 10% vol
Experimental: The toxicity of (E)-2-hexenal and methyl benzoate volatiles was tested at 100% (pure) and 10% vol. concentrations on honeybees (Apis mellifera) in the petri dish assay of FIG. 1A. Adult bees were exposed for one hour and the proportion of death across all trials (5 trials with each of the pure VOCs and 10 trials for each of the 10% vol VOC assays) was calculated. The results of these experiments are shown on FIG. 8.
Honeybee foragers were obtained from a large bee keeping company (Agroquímica Ollé, http://agroquimicaolle.com). Bees were held in an incubator at 22 degrees for a few days and provided with ad libitum sugar water.

D. simulans = assay: Airborne toxicity petri dish assay, adult flies (FIG. 1A); assay type: in vivo; conditions: 10% vol
Text: as §1, with “6a. The onset of paralysis/loss of locomotion control, ultimately resulting in death of the flies 2, was monitored over a period of 1 hour or until all flies 2 were dead, determined when fly wings were vertical (similar to the protocol described in Legal et al. 1992 and 1994).” for “6a.”
(§2) Adult flies of Drosophila species were exposed to a 10% vol solution of (E)-2-hexenal and 10% vol solution of methyl benzoate, in an experimental set up as explained in relation to FIG. 1A. For each VOC, species of the suzukii complex (D. suzukii, D. biarmipes), melanogaster complex (D. melanogaster, D. simulans, D. sechellia), and erecta+yakuba complex (D. erecta, D. yakuba, D. santomea) of the melanogaster species group were compared. 5-10 mixed female and male adults were used per trial. FIGS. 4A and B show the results of these experiments, respectively for (E)-2-hexenal (FIG. 4A) and methyl benzoate (FIG. 4B). The data shown represents the average±SEM of the proportion of dead flies as a function of time, over 3 to 6 assays per condition.

D. yakuba = assay: as above; assay type: in vivo; conditions: 10% vol
Text: as §1, with “6a. The onset of paralysis/loss of locomotion control, ultimately resulting in death of the flies 2, was monitored over a period of 1 hour or until all flies 2 were dead, determined when fly wings were vertical (similar to the protocol described in Legal et al. 1992 and 1994).” for “6a.”
as §2

D. sechellia = assay: as above; assay type: in vivo; conditions: 10% vol
Text: as §1, with “6a. The onset of paralysis/loss of locomotion control, ultimately resulting in death of the flies 2, was monitored over a period of 1 hour or until all flies 2 were dead, determined when fly wings were vertical (similar to the protocol described in Legal et al. 1992 and 1994).” for “6a.”
as §2

D. erecta = assay: as above; assay type: in vivo; conditions: 10% vol
Text: as §1, with “6a. The onset of paralysis/loss of locomotion control, ultimately resulting in death of the flies 2, was monitored over a period of 1 hour or until all flies 2 were dead, determined when fly wings were vertical (similar to the protocol described in Legal et al. 1992 and 1994).” for “6a.”
as §2

D. biarmipes = assay: as above; assay type: in vivo; conditions: 10% vol
Text: as §1, with “6a. The onset of paralysis/loss of locomotion control, ultimately resulting in death of the flies 2, was monitored over a period of 1 hour or until all flies 2 were dead, determined when fly wings were vertical (similar to the protocol described in Legal et al. 1992 and 1994).” for “6a.”
as §2

D. suzukii larvae = assay: Fly larva chemotaxis assay; assay type: in vivo, Drosophila suzukii; conditions: 1% vol in paraffin oil, 5 minutes
Experimental: Larvae were exposed to 1% vol solution of (E)-2-hexenal or methyl benzoate in paraffin oil loaded onto the lid of a petri dish. Their movement was tracked for 5 minutes. A preference index was quantified as the fraction of time larvae spent in a zone around the odour sources. A population of 15 larvae were used per trial and they were placed in the centre of the petri dish at the start of the experiment. The average distance of the larvae to the odour sources was also quantified over time. The results of this analysis are shown on FIG. 9, for each of the conditions where a VOC of the invention was used. A total of 10 trials were performed for each condition, i.e. for each VOC and fly species, and 30 trials were performed for a control condition, for which only the solvent paraffin oil was applied.
Behavioural experiments were performed with third instar foraging larvae. A group of approximately 15 larvae per trial was placed in a Petri dish and monitored during 5 minutes for their chemotactic behaviour, as larvae were exposed to an odour gradient in gas phase emanating from the two odour sources on the lid of the Petri dish. […] Larval behaviour was tracked using a video camera and the data derived was then analysed in Matlab (MathWorks) using custom-made programs to calculate additional time-series variables, and to determine the preference index and the distance of larvae to the source.

[2] = system: adult flies of D. suzukii; assay: Contact toxicity, adult flies sprayed in a bugdorm; assay type: in vivo, Drosophila suzukii; conditions: for Proportion of dead flies (%): sprayed; for concentration inducing mortality by contact (as low as): sprayed adult D. suzukii
Experimental: Contact toxicity of E-2-hexenal and methyl benzoate volatiles was tested at different concentrations and in combination with thickeners in different concentration that make E-2-hexenal and methyl benzoate stick to the flies. […] Flies (10-15 mixed males/females) were placed into a bugdorm and sprayed from a distance of 10 cm. Mortality was evaluated after 24 hrs, except for the condition indicated with a star in Table 3, where an exposure time of 50 minutes was used. Thickeners were diluted in aqueous emulsions of deionised water containing 1% vol. Tween 20.

[3] = 0.1% compound + 1% Arabic Gom, 24 hrs
[4] = 0.1% compound + 1% hydroxyethylcellulose, 24 hrs
[5] = 0.1% compound, mortality after 24 hrs
[6] = 1% compound + 1% Arabic Gom, 24 hrs
[7] = 1% compound + 1% hydroxyethylcellulose, 24 hrs
[8] = 5% compound, mortality after 24 hrs
[9] = *1% compound, exposure time of 50 minutes

Row | SMILES | LD50 (expected concentration at which 50% of the flies die) (D. suzukii) [% vol] | T50 (time at which 50% of the flies were dead) (D. suzukii; 1% concentration) | T50 (D. suzukii) [min] | T50 (time at which 50% of the flies were dead) (D. suzukii; concentration 5% vol) [min] | T50 (time at which 50% of the flies were dead) (D. suzukii; concentration 10% vol) [min] | T50 (time at which 50% of the flies were dead) (D. suzukii; concentration 20% vol) [min] | T50 (time at which 50% of the flies were dead) (D. suzukii; concentration 100% vol) [min] | airborne toxicity/lethality in the initial screen with a high dose (words) (D. suzukii) | specificity of toxicity, D. suzukii versus D. melanogaster (D. suzukii) | toxicity to honey bees [1] | T50 (D. simulans) [min] | T50 (D. yakuba) [min] | T50 (D. sechellia) [min] | T50 (D. erecta) [min] | T50 (D. biarmipes) [min] | larval chemotactic response (D. suzukii larvae) | Proportion of dead flies (%) [2, 3] [%] | Proportion of dead flies (%) [2, 4] [%] | Proportion of dead flies (%) [2, 5] [%] | Proportion of dead flies (%) [2, 6] [%] | also measured
1 | COC(=O)c1ccccc1 [methyl benzoate, Methyl benzoate] | 3 | not lethal | 5.9 | 9.8 | 5.9 | 4.2 | 2.8 | highly toxic; also recorded: showed toxicity | specific toxicity towards D. suzukii | low levels of toxicity | 9.4 | 11 | 34 | 13.8 | 9.6 | strongly repulsive | 30 | 10 | 33 | 30 | Proportion of dead flies (%) [2, 7]: 70%; Proportion of dead flies (%) [2, 8]: 100%; Proportion of dead flies (%) [2, 9]: 30%; concentration inducing mortality by contact (as low as) [2]: 0.1%
2 | CCC/C=C/C=O [(E)-2-hexenal] | 3 | not lethal | 4.1 | 9.3 | 4.1 | 1.6 | 1.2 | highly toxic; also recorded: showed toxicity | specific toxicity towards D. suzukii | low levels of toxicity | 9 | 8.7 | 22.7 | 5.3 | 15.4 | attractive chemotactic responses | 80 | 80 | 31 | 10 | lethality as a function of the sex of the flies (D. suzukii; 5% vol in paraffin solution, adult D. suzukii, males vs females): males displayed more sensitivity; toxicity to honey bees (rate) ([1]; 100% (pure) compound): significantly faster rate than pure methyl benzoate; Proportion of dead flies (%) [2, 7]: 50%; Proportion of dead flies (%) [2, 8]: 100%; Proportion of dead flies (%) [2, 9]: 50%; concentration inducing mortality by contact (as low as) [2]: 0.1%
